Laboratory results published in US4613618A, “Method for treating disorders of lipid metabolism using benzene sulfonamides” (Choay S.A., priority 1981, dated 1986).
Read-outs that look alike come from different tables or passages of the source.

How the values were obtained:
[1] = tested on: atherosclerosis inducing diet (cholesterol, cholic acid, vitamine D2); test: Atherosclerosis inducing diet: biochemical exams; assay type: in vivo, Wistar female rats; parameters: CHOLESTEROL T, % reduction with respect to the control diet / CHOLESTEROL HDL, % with respect to the control diet / CHOLESTEROL LDL, % reduction with respect to the control diet / TRIGLYCERIDES, % reduction with respect to the control diet: concentration or dose not given beside the values; conditions: for TRIGLYCERIDES, % reduction with respect to the control diet / CHOLESTEROL HDL, % with respect to the control diet / CHOLESTEROL LDL, % reduction with respect to the control diet / CHOLESTEROL T, % reduction with respect to the control diet: 4 weeks administration; for CHOLESTEROL HDL, Score with respect to clofibrate / CHOLESTEROL LDL, Score with respect to clofibrate / CHOLESTEROL T, Score with respect to clofibrate / TRIGLYCERIDES, Score with respect to clofibrate: clofibrate counted as 1; for CHOLESTEROL T, % reduction with respect to the control diet: total cholesterol
Procedure: (§1) In a second experimental series, tha activity of certain products according to the invention were tested on animals which had received an atherosclerosis inducing diet for a long period.
(§2) The test was carried out on Wistar female rats, of weight about 160-180 g.
(§3) The animals received food coming from the National Nutrition plant of Villemoisson-sur-Orge, France, and denoted by the reference UAR AO3, enriched in cholesterol (0.5%) and in cholic acid (0.5%).
(§4) After 15 days of the atherosclerosis inducing diet and whilst maintaining the animals on an atherosclerosis inducing diet, they were given orally for 4 days 250.000 iu/kg of vitamine D2 marketed under the name Sterogyl 25H, in solution in olive oil.
(§5) Then the products under study were administered for 4 weeks, from the end of the administration of the lesion-inducing agent.
At the end of the study, biochemical examinations were carried out on all the animals [total cholesterol, high density lipoprotein (HDL) and cholesterol low density lipoprotein (LDL), and triglycerides].
(§6) Then the pecentage reduction with respect to the diet controls and the score were calculated, that is to say the ratio of the intensity of the activity of the product tested with respect to that of the activity of clofibrate, reckoned as 1.
Table IX gives the detailed results of the biochemical examination:
(a) in % reduction with respect to the control die;
(b) as score, with respect to the reference product, clofibrate, the latter being counted as 1.

atherosclerosis lesions = test: Atherosclerosis inducing diet: macroscopic exams (affected animals); assay type: in vivo, Wistar female rats; conditions: for Score with respect to the reference clofibrate (animals afflicted with lesions): clofibrate counted as 1; for AFFECTED ANIMALS %: macroscopic exams, TEM-diet 100
Procedure: as §1, §2, §3, §4, §5
(§7) At the end of the study, all the animals still alive were sacrificed, and various organs were removed, particularly the aorta, for histological study of the latter. Two criteria were examined: the number of atherosclerosis areas and the severity of the lesions.
as §6
Table X gives the results of macroscopic examinations:
(a) in % decrease in animals afflicted with lesions;
(b) as score with respect to the reference clofibrate, of which the score was counted as 1.

aorta = test: Atherosclerosis inducing diet: microscopic observations (aorta, histology); assay type: in vivo, Wistar female rats; parameters: HISTOLOGICAL QUOTATION, percentage reduction with respect to the diet controls / NUMBER OF ATHEROSCLEROTIC AREAS, percentage reduction with respect to the diet controls: concentration or dose not given beside the values; conditions: for NUMBER OF ATHEROSCLEROTIC AREAS: TEM-diet 160; for HISTOLOGICAL QUOTATION, score with respect to clofibrate / NUMBER OF ATHEROSCLEROTIC AREAS, score with respect to clofibrate: clofibrate counted as 1; for HISTOLOGICAL QUOTATION, percentage reduction with respect to the diet controls / HISTOLOGICAL QUOTATION: severity of the lesions; for HISTOLOGICAL QUOTATION: TEM-diet 132
Procedure: as §1, §2, §3, §4, §5, §7
Calculation of the figures was carried out in the following manner:
as regards the severity of the lesions, a quotation ranging from 0 for absence of a lesion to 5+ for the severest lesions was made, and this for each type of alteration concerned (increase of interlamellar spaces, interruption of elastic laminae, thickening of the elastic laminae, calcium deposition, mucopolysaccharide deposition); then all of the results per batch of animals were added;
as regards the number of atherosclerosis areas, by counting the latter and adding all the figures obtained per batch of animals.
as §6
Table XI gives the microscopic results with histological quotation as regards the severity of the lesions, and the number of atherosclerotic areas.

[2] = tested on: hyperlipidemia caused by the administration of TRITON; test: Triton test: lipid regulating activity in hyperlipidemia caused by TRITON W. R.; assay type: in vivo, WISTAR male rats; conditions: Rattus norvegicus, po, 250 mg/kg orally, 6 hours and/or 24 hours
Procedure: In a first series of experiments, products were tested on a hyperlipidemia caused by the administration of TRITON according to the following procedure.
The tests were carried out on groups of five WISTAR male rats whose weight varied from 150 to 175 g.
The tested products were administered, orally in the form of a 3% aqueous solution of tragacanth gum in the ratio of 1 ml per 100 g of body weight, in an amount corresponding to 250 mg/kg.
To carry out these tests, a hyperlipidemia was caused in the animals, by means of the product marketed by the ROHM and HAAS Company under the name TRITON W. R.
On this hyperlipidemia the effects obtained by the administration of the active substances according to the invention, are observed.
The tests were carried out as follows:
the rats were fasted for 18 hours, then the TRITON W. R. was administered intravenously in 10% aqueous solution in the proportion of 200 mg/kg;
simultaneously 250 mg/kg of the product under test was administered orally;
6 hours and/or 24 hours later, blood assays were carried out conventionally.
to the total cholesterol, […]

[3] = Acute toxicity, intraperitoneal, mice; conditions: mouse, in vivo, ip, intraperitoneally, read-out: lethal dose 50
Procedure: The acute toxicity is expressed by the lethal dose 50, that is to say the dose resulting in the death of 50% of the animals.
This study was carried out on mice, to which the products under test were administered intraperitoneally.
It was established as follows, for the following substances: […]

[4] = read-out: Total cholesterol, % of decrease with respect to Triton control
[5] = read-out: Total lipids, % of decrease with respect to Triton control
[6] = read-out: Triglycerides, % of decrease with respect to Triton control

Row | SMILES | change in vivo at 250 mg/kg [2, 4] | change in vivo at 250 mg/kg [2, 5] | change in vivo at 250 mg/kg [2, 6] | LD50 [3] | other results
1 | CCOC(=O)C(C)(C)Oc1ccc(Cl)cc1 [CLOFIBRATE, clofibrate, reference compound] |  |  |  |  | TRIGLYCERIDES, % reduction with respect to the control diet [1]: -24,14%; CHOLESTEROL HDL, % with respect to the control diet [1]: +104,17%; CHOLESTEROL LDL, % reduction with respect to the control diet [1]: -55,37%; CHOLESTEROL HDL, Score with respect to clofibrate [1]: 1,00; CHOLESTEROL LDL, Score with respect to clofibrate [1]: 1,00; CHOLESTEROL T, Score with respect to clofibrate [1]: 1,00; TRIGLYCERIDES, Score with respect to clofibrate [1]: 1,00; CHOLESTEROL T, % reduction with respect to the control diet [1]: -48,75%; % decrease in animals afflicted with lesions (atherosclerosis lesions): 18,18%; Score with respect to the reference clofibrate (animals afflicted with lesions) (atherosclerosis lesions): 1,00; AFFECTED ANIMALS % (atherosclerosis lesions): 81,82%; NUMBER OF ATHEROSCLEROTIC AREAS, percentage reduction with respect to the diet controls (aorta): 54,93%; NUMBER OF ATHEROSCLEROTIC AREAS (aorta): 72%; HISTOLOGICAL QUOTATION, score with respect to clofibrate (aorta): 1,00; NUMBER OF ATHEROSCLEROTIC AREAS, score with respect to clofibrate (aorta): 1,00; HISTOLOGICAL QUOTATION, percentage reduction with respect to the diet controls (aorta): 62,83%; HISTOLOGICAL QUOTATION (aorta): 49%
2 | COc1cc([N+](=O)[O-])c(Cl)cc1S(=O)(=O)NCCCCCC(=O)O [compound 362] | -10% | -39% | -88% | 1760 mg/kg | 
3 | COc1cc([N+](=O)[O-])c(Cl)cc1S(=O)(=O)NCCCC(=O)O [compound 387] |  | -39% | -90% | 3070 mg/kg | 
4 | CCOC(=O)CCCCCCCCCCNS(=O)(=O)c1cc(Cl)c([N+](=O)[O-])cc1OC [compound 502] | -16% | -45% | -32% | 3070 mg/kg | 
5 | Nc1ccc(S(=O)(=O)NCCCCCC(=O)O)cc1 [compound 665] | -15% | -30% | -20% | > 6400 mg/kg | 
6 | O=C(O)CCCCCNS(=O)(=O)c1cccc([N+](=O)[O-])c1 [compound 675] | -19% | -45% | -27% | 930 mg/kg | 
7 | CCOC(=O)CCCCCCCCCCNS(=O)(=O)c1cccc([N+](=O)[O-])c1 [compound 676] | -10% | -43% | -24% | > 6400 mg/kg | 
8 | CCOC(=O)CCCNS(=O)(=O)c1cccc([N+](=O)[O-])c1 [compound 679] | -30% | -61% | -34% |  | TRIGLYCERIDES, % reduction with respect to the control diet [1]: 0%; CHOLESTEROL HDL, % with respect to the control diet [1]: +58,33%; CHOLESTEROL LDL, % reduction with respect to the control diet [1]: -60,14%; CHOLESTEROL HDL, Score with respect to clofibrate [1]: 0,56; CHOLESTEROL LDL, Score with respect to clofibrate [1]: 1,09; CHOLESTEROL T, Score with respect to clofibrate [1]: 1,09; TRIGLYCERIDES, Score with respect to clofibrate [1]: 0; CHOLESTEROL T, % reduction with respect to the control diet [1]: -53,13%; % decrease in animals afflicted with lesions (atherosclerosis lesions): 7,14%; Score with respect to the reference clofibrate (animals afflicted with lesions) (atherosclerosis lesions): 0,39; AFFECTED ANIMALS % (atherosclerosis lesions): 92,86%; NUMBER OF ATHEROSCLEROTIC AREAS, percentage reduction with respect to the diet controls (aorta): 48,57%; NUMBER OF ATHEROSCLEROTIC AREAS (aorta): 82%; HISTOLOGICAL QUOTATION, score with respect to clofibrate (aorta): 0,64; NUMBER OF ATHEROSCLEROTIC AREAS, score with respect to clofibrate (aorta): 0,88; HISTOLOGICAL QUOTATION, percentage reduction with respect to the diet controls (aorta): 39,97%; HISTOLOGICAL QUOTATION (aorta): 79%
9 | Nc1cccc(S(=O)(=O)NCCCC(=O)O)c1 [compound 680] |  | -46% | -16% |  | 
10 | CCOC(=O)CCCCCNS(=O)(=O)c1cccc(N)c1 [compound 682] |  | -22% | -34% |  | 
11 | CCOC(=O)CCCCCCCCCCNS(=O)(=O)c1cccc(N)c1 [compound 683] |  | -19% | -52% |  | 
12 | COc1cc(N)ccc1S(=O)(=O)NCCCCCC(=O)O [compound 694, ε(4-amino 2-methoxybenzenesulfonamido)caproic acid] | -32% | -31% | -65% |  | 
13 | Nc1cccc(S(=O)(=O)NCCCCCCCCCCC(=O)O)c1 [compound 695] | -24% | -20% | -27% |  | 
14 | COc1cc([N+](=O)[O-])ccc1S(=O)(=O)NCCCCCC(=O)O [compound 696, ε(4-nitro 2-methoxybenzenesulfonamido)caproic acid] | -56% | -46% | -59% |  | 
15 | O=C(O)CCCCCCCCCCNS(=O)(=O)c1cccc([N+](=O)[O-])c1 [compound 697] | -46% | -35% | -50% |  | 
16 | CCOC(=O)CCCCCCCCCCNS(=O)(=O)c1ccc(Cl)cc1 [compound 728] |  | -32% | -53% |  | 
17 | CCOC(=O)CCCCCCCCCCNS(=O)(=O)c1ccc(OC)cc1 [compound 729] |  |  | -17% | > 6400 mg/kg | 
18 | CCOC(=O)CCCCCCCNS(=O)(=O)c1cc(Cl)c(N)cc1OC [compound 730] |  |  | -10% |  | 
19 | O=C(O)CCCNS(=O)(=O)c1cccnc1 [compound 786] | -36% | -24% | -17% |  | TRIGLYCERIDES, % reduction with respect to the control diet [1]: -17,24%; CHOLESTEROL HDL, % with respect to the control diet [1]: -20,83%; CHOLESTEROL LDL, % reduction with respect to the control diet [1]: -57,07%; CHOLESTEROL LDL, Score with respect to clofibrate [1]: 1,03; CHOLESTEROL T, Score with respect to clofibrate [1]: 1,11; TRIGLYCERIDES, Score with respect to clofibrate [1]: 0,71; CHOLESTEROL T, % reduction with respect to the control diet [1]: -54,22%; % decrease in animals afflicted with lesions (atherosclerosis lesions): 6,67%; Score with respect to the reference clofibrate (animals afflicted with lesions) (atherosclerosis lesions): 0,37; AFFECTED ANIMALS % (atherosclerosis lesions): 93,33%
20 | O=C(O)CCCCCNS(=O)(=O)c1cccs1 [compound 800] | -13% | -33% | -5% |  | 
21 | O=C(O)CCCCCCCCCCNS(=O)(=O)c1cccs1 [compound 823] | -41% | -25% |  |  | 
